Structures are written as SMILES. pIC50: −log10 of the molar value. Several values for one entry are separate records, joined by “and”; a condition that tells them apart may be missing. Equal values may be shown once. Read-outs that look alike come from different tables or passages of the source.

We go through two compounds from PMC3445474 (PLoS ONE, 2012).

In series [1] the test system is viral and bacterial neuraminidases. The class given is biochemical, influenza viruses, bacteria, human saliva. Particulars: read-out: IC50, viral, bacterial and saliva neuraminidases.
The test system of a further series is A/Udorn/72 virus. As to the kind of experiment: microbe, parasite or virus in culture. Format: cell-based, influenza A virus. Particulars: for activity at 0.25 µM: MDCK, read-out: Virus yield (progeny virus, % of control).
The subject of the next series is B/Johannesburg/99 virus. As to the kind of experiment: Virus growth inhibition assay in MDCK cells (progeny virus by plaque assay). Format: cell-based, influenza B virus. Particulars: for activity at 0.25 µM: read-out: Virus yield (progeny virus, % of control). How it is done: The infectivity of viruses was determined by plaque assay as described below. Ten-fold serial dilutions of virus samples were made in Hanks balanced salt solution (HBSS; GIBCO, Gland Island, NY, USA) and 0.1 ml of the dilutions was inoculated on MDCK cell monolayers in 6-well tissue culture plates (Corning, Lowell, MA, USA). After adsorption of the virus onto the cells for 30 min at room temperature, 1.6 ml of Leibovitz’s L15 medium (GIBCO, Gland Island, NY, USA) containing 0.6% SeaKem ME agarose (Lonza, Basel, Switzerland), 1.5% gelatin (Nacalai, Kyoto, Japan) and 2.5 µg/ml TPCK-trypsin was added to each well and allowed to solidify. The plates were incubated for 3 days at 34°C and the number of plaques was counted. Infectivity was expressed as plaque forming units (pfu) per ml.
The inhibition of virus growth by neuraminidase inhibitors in the presence or absence of bacterial neuraminidase was assayed by measuring the released progeny virus in the culture fluid of infected cells. MDCK cells seeded on 12-well tissue culture plates were inoculated with 50 µl of virus suspension at a MOI of 0.001 or 0.01. After the adsorption for 1 h on ice, 1 ml MEM supplemented with 2.5 µg/ml TPCK-trypsin containing neuraminidase inhibitor and/or bacterial neuraminidase was added to each well. At the indicated times of incubation at 37°C in 5% CO2, culture media were harvested and the virus titers, performed in triplicate wells, were determined by plaque assay.

Series [2] relates to bacterial and salivary neuraminidases (S. pneumoniae, saliva, A. ureafaciens, V. cholerae RDE). Format: biochemical, human saliva.
On the set-up of series [3]: method as in PMID 10858364. Particulars: 6 h after oral inhalation of 10 mg of zanamivir powder; cited from earlier work.
In series [4] the test system is neuraminidase of influenza viruses (A/Udorn/72(H3N2), A/Chiba/2009(H1N1)pdm and B/Johannesburg/99). The class given is biochemical, influenza virus.
The nature of series [5]: Concentration of zanamivir in sputum after oral inhalation (clinical setting). Particulars: minutes after oral inhalation of 10 mg of zanamivir powder. The class given is in vivo.

For `CC(=O)N[C@H]1[C@H]([C@H](O)[C@H](O)CO)OC(C(=O)O)=C[C@@H]1O` [DANA, 2-Deoxy-2,3-dehydro-N-acetylneuraminic acid], the pIC50 – broadly, −log10 of the IC50, conventionally taken in molar units – in series [1] was 4.70 to 5.70. Besides, the “Effect on influenza virus production” value in the series on A/Udorn/72 virus is given as “inhibited influenza virus production”; in the series on B/Johannesburg/99 virus (2.5 mM DANA, MDCK cells, MOI 0.001, 40 hpi) it was “inhibited influenza virus production”. Further, the “Restoration of virus production by S. pneumoniae culture supernatant” value with A/Udorn/72 virus and in the series with B/Johannesburg/99 virus (2.5 mM DANA + S. pneumoniae culture supernatant) was “not restored” in each case.

Take `CC(=O)N[C@H]1[C@H]([C@H](O)[C@H](O)CO)OC(C(=O)O)=C[C@@H]1N=C(N)N` [zanamivir, Zanamivir]: the “Concentrations at which bacterial neuraminidases were inhibited” value in series [2] (Figure 2A) is “above 10 µM”. This compound also gave a pIC50 in series [2] (range over S. pneumoniae, saliva, A. ureafaciens, V. cholerae RDE) of 2.30 to 4.00. The “Concentration of zanamivir in sputum” value in series [3] was ≤ 1,441 ng/ml and ≤ 4.3 µM. Further, the activity at 0.25 µM was determined as 2% with A/Udorn/72 virus (Influenza A virus); 84% in the series on A/Udorn/72 virus (Streptococcus pneumoniae); 92% with B/Johannesburg/99 virus (250 nM zanamivir + Streptococcus pneumoniae culture supernatant (6 µunits/ml neuraminidase activity), MDCK cells, MOI 0.001, 40 hpi); 0.4% with B/Johannesburg/99 virus (Influenza B virus, 250 nM zanamivir, MDCK cells, MOI 0.001, 40 hpi). The “Potency against influenza virus NA relative to bacterial neuraminidases” value in series [4] was “approximately a million”. Also, the “Concentration of zanamivir in sputum, calculated” value in series [5] was ≤ 5,870 ng/ml and ≤ 17.5 µM.
